According to the supplement of paper PMC10307832:

Each cell line was assayed with COc1cc([C@@H]2c3cc4c(cc3[C@@H](O[C@@H]3O[C@@H]5CO[C@@H](C)O[C@H]5[C@H](O)[C@H]3O)[C@H]3COC(=O)[C@H]23)OCO4)cc(OC)c1O [Etoposide] + C[C@@H](Oc1cc(-c2cnn(C3CCNCC3)c2)cnc1N)c1c(Cl)ccc(F)c1Cl [Crizotinib] (partner 1 µM) (assay: relative viability (nuclei count vs DMSO), 5 days (fraction); higher = more cells survive). Details: first compound 0.01 µM.
Outline: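 Relative viability equals treated-well nuclei counts divided by vehicle-well nuclei counts. Counts came from 4× images of lung cancer cell lines grown in 1536-well plates for 5 days after pin-tool dosing on the day after seeding. Dosing used one drug alone or a fixed anchor-drug dose plus five library-drug doses (not always all listed) in √10 steps, and values are medians of duplicate plates.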

Q: How did the relative viability turn out when COR-L23 was run?
A: 0.548

Q: Which relative viability does the source give for COR-L 105 here?
A: 0.675

Q: Which relative viability does the source give for LOU-NH91 here?
A: 0.74

Q: How did the relative viability turn out when ChaGo-K-1 was run?
A: 1.08

Q: For NCI-H3122, which relative viability is on record?
A: 0.307

Q: HOP-62 was tested. Which relative viability did it give?
A: 0.96

Q: HCC-44 was tested. Which relative viability did it give?
A: 0.82

Q: Which relative viability does the source give for LU99A here?
A: 0.577

Q: For BEN, which relative viability is on record?
A: 0.701

Q: With HARA as the cell line, how does the relative viability read?
A: 0.801

Q: How did the relative viability turn out when HCC-78 was run?
A: 0.31

Q: Which relative viability does the source give for NCI-H441 here?
A: 0.597

Q: NCI-H2009 was tested. Which relative viability did it give?
A: 1.02

Q: Which relative viability does the source give for A-427 here?
A: 0.875

Q: For NCI-H460, which relative viability is on record?
A: 0.708

Q: With NCI-H727 as the cell line, how does the relative viability read?
A: 0.771

Q: For NCI-H1734, which relative viability is on record?
A: 0.647

Q: Which relative viability does the source give for NCI-H520 here?
A: 0.759

Q: Which relative viability does the source give for NCI-H2405 here?
A: 0.804

Q: How did the relative viability turn out when SW 1573 was run?
A: 0.634

Q: How did the relative viability turn out when 201T was run?
A: 1.02

Q: With NCI-H1915 as the cell line, how does the relative viability read?
A: 0.859

Q: Which relative viability does the source give for HCC-827 here?
A: 0.879

Q: With LXF-289 as the cell line, how does the relative viability read?
A: 0.851

Q: For NCI-H2347, which relative viability is on record?
A: 0.677

Q: With NCI-H650 as the cell line, how does the relative viability read?
A: 0.568

Q: With NCI-H1651 as the cell line, how does the relative viability read?
A: 0.815

Q: Which relative viability does the source give for EPLC-272H here?
A: 1.07

Same assay, conditions: first compound 0.03162 µM

Q: Which relative viability does the source give for COR-L23 here?
A: 0.68

Q: COR-L 105 was tested. Which relative viability did it give?
A: 0.51

Q: LOU-NH91 was tested. Which relative viability did it give?
A: 0.767

Q: ChaGo-K-1 was tested. Which relative viability did it give?
A: 0.888

Q: With NCI-H3122 as the cell line, how does the relative viability read?
A: 0.288

Q: With HOP-62 as the cell line, how does the relative viability read?
A: 0.998

Q: Which relative viability does the source give for HCC-44 here?
A: 0.807

Q: Which relative viability does the source give for LU99A here?
A: 0.512

Q: How did the relative viability turn out when BEN was run?
A: 0.827

Q: HARA was tested. Which relative viability did it give?
A: 1.11

Q: For HCC-78, which relative viability is on record?
A: 0.334

Q: For NCI-H441, which relative viability is on record?
A: 0.603

Q: How did the relative viability turn out when LCLC-97TM1 was run?
A: 0.382

Q: For NCI-H2009, which relative viability is on record?
A: 0.994

Q: With A-427 as the cell line, how does the relative viability read?
A: 0.837

Q: Which relative viability does the source give for NCI-H460 here?
A: 0.498

Q: NCI-H727 was tested. Which relative viability did it give?
A: 0.683

Q: NCI-H1734 was tested. Which relative viability did it give?
A: 0.643

Q: NCI-H520 was tested. Which relative viability did it give?
A: 0.729

Q: With NCI-H2405 as the cell line, how does the relative viability read?
A: 0.962

Q: For SW 1573, which relative viability is on record?
A: 0.618

Q: With 201T as the cell line, how does the relative viability read?
A: 1.03

Q: With NCI-H1915 as the cell line, how does the relative viability read?
A: 0.985

Q: How did the relative viability turn out when HCC-827 was run?
A: 0.941

Q: For LXF-289, which relative viability is on record?
A: 0.824

Q: With NCI-H2347 as the cell line, how does the relative viability read?
A: 0.455

Q: Which relative viability does the source give for NCI-H650 here?
A: 0.831

Q: Which relative viability does the source give for NCI-H1651 here?
A: 0.827

Q: Which relative viability does the source give for EPLC-272H here?
A: 1.03

Same assay, conditions: first compound 0.1 µM

Q: For COR-L23, which relative viability is on record?
A: 0.802

Q: How did the relative viability turn out when COR-L 105 was run?
A: 0.709

Q: LOU-NH91 was tested. Which relative viability did it give?
A: 0.701

Q: With ChaGo-K-1 as the cell line, how does the relative viability read?
A: 0.576

Q: For NCI-H3122, which relative viability is on record?
A: 0.231

Q: How did the relative viability turn out when HOP-62 was run?
A: 0.799

Q: With HCC-44 as the cell line, how does the relative viability read?
A: 0.812

Q: How did the relative viability turn out when LU99A was run?
A: 0.388

Q: How did the relative viability turn out when HARA was run?
A: 1.11

Q: HCC-78 was tested. Which relative viability did it give?
A: 0.241

Q: NCI-H441 was tested. Which relative viability did it give?
A: 0.39

Q: With LCLC-97TM1 as the cell line, how does the relative viability read?
A: 0.241

Q: How did the relative viability turn out when NCI-H2009 was run?
A: 1.08

Q: How did the relative viability turn out when A-427 was run?
A: 0.717

Q: Which relative viability does the source give for NCI-H460 here?
A: 0.476

Q: For NCI-H727, which relative viability is on record?
A: 0.867

Q: NCI-H1734 was tested. Which relative viability did it give?
A: 0.541

Q: With NCI-H520 as the cell line, how does the relative viability read?
A: 0.944

Q: With NCI-H2405 as the cell line, how does the relative viability read?
A: 0.717

Q: For SW 1573, which relative viability is on record?
A: 0.595

Q: With 201T as the cell line, how does the relative viability read?
A: 0.975

Q: NCI-H1915 was tested. Which relative viability did it give?
A: 0.825

Q: Which relative viability does the source give for HCC-827 here?
A: 0.662

Q: With LXF-289 as the cell line, how does the relative viability read?
A: 0.836

Q: NCI-H2347 was tested. Which relative viability did it give?
A: 0.408

Q: With NCI-H650 as the cell line, how does the relative viability read?
A: 0.416

Q: How did the relative viability turn out when NCI-H1651 was run?
A: 0.629

Q: EPLC-272H was tested. Which relative viability did it give?
A: 0.628

Same assay, conditions: first compound 0.3162 µM

Q: How did the relative viability turn out when COR-L23 was run?
A: 0.45

Q: For COR-L 105, which relative viability is on record?
A: 0.644

Q: Which relative viability does the source give for LOU-NH91 here?
A: 0.632

Q: Which relative viability does the source give for ChaGo-K-1 here?
A: 0.306

Q: NCI-H3122 was tested. Which relative viability did it give?
A: 0.262

Q: HOP-62 was tested. Which relative viability did it give?
A: 0.681

Q: For HCC-44, which relative viability is on record?
A: 0.696

Q: For LU99A, which relative viability is on record?
A: 0.288

Q: How did the relative viability turn out when BEN was run?
A: 0.828

Q: How did the relative viability turn out when HARA was run?
A: 0.611

Q: With HCC-78 as the cell line, how does the relative viability read?
A: 0.227

Q: With NCI-H441 as the cell line, how does the relative viability read?
A: 0.197

Q: Which relative viability does the source give for LCLC-97TM1 here?
A: 0.155

Q: Which relative viability does the source give for NCI-H2009 here?
A: 0.713

Q: For A-427, which relative viability is on record?
A: 0.263

Q: Which relative viability does the source give for NCI-H460 here?
A: 0.0396

Q: Which relative viability does the source give for NCI-H727 here?
A: 0.766

Q: Which relative viability does the source give for NCI-H1734 here?
A: 0.497

Q: For NCI-H520, which relative viability is on record?
A: 0.725

Q: How did the relative viability turn out when NCI-H2405 was run?
A: 0.694

Q: For SW 1573, which relative viability is on record?
A: 0.29

Q: For 201T, which relative viability is on record?
A: 0.898

Q: With NCI-H1915 as the cell line, how does the relative viability read?
A: 0.802

Q: HCC-827 was tested. Which relative viability did it give?
A: 0.394

Q: LXF-289 was tested. Which relative viability did it give?
A: 0.511

Q: How did the relative viability turn out when NCI-H2347 was run?
A: 0.384

Q: With NCI-H650 as the cell line, how does the relative viability read?
A: 0.339

Q: With NCI-H1651 as the cell line, how does the relative viability read?
A: 0.301

Q: Which relative viability does the source give for EPLC-272H here?
A: 0.703

Same assay, conditions: first compound 1 µM

Q: With COR-L23 as the cell line, how does the relative viability read?
A: 0.198

Q: COR-L 105 was tested. Which relative viability did it give?
A: 0.543

Q: Which relative viability does the source give for LOU-NH91 here?
A: 0.438

Q: How did the relative viability turn out when ChaGo-K-1 was run?
A: 0.304

Q: With NCI-H3122 as the cell line, how does the relative viability read?
A: 0.246

Q: For HOP-62, which relative viability is on record?
A: 0.157

Q: For HCC-44, which relative viability is on record?
A: 0.351

Q: LU99A was tested. Which relative viability did it give?
A: 0.189

Q: Which relative viability does the source give for BEN here?
A: 0.693

Q: With HARA as the cell line, how does the relative viability read?
A: 0.192

Q: Which relative viability does the source give for HCC-78 here?
A: 0.181

Q: Which relative viability does the source give for NCI-H441 here?
A: 0.133

Q: Which relative viability does the source give for LCLC-97TM1 here?
A: 0.111

Q: With NCI-H2009 as the cell line, how does the relative viability read?
A: 0.329

Q: Which relative viability does the source give for A-427 here?
A: 0.153

Q: With NCI-H460 as the cell line, how does the relative viability read?
A: 0.0142

Q: For NCI-H727, which relative viability is on record?
A: 0.585

Q: With NCI-H1734 as the cell line, how does the relative viability read?
A: 0.271

Q: Which relative viability does the source give for NCI-H520 here?
A: 0.629

Q: With NCI-H2405 as the cell line, how does the relative viability read?
A: 0.33

Q: For SW 1573, which relative viability is on record?
A: 0.198

Q: 201T was tested. Which relative viability did it give?
A: 0.678

Q: Which relative viability does the source give for NCI-H1915 here?
A: 0.481

Q: HCC-827 was tested. Which relative viability did it give?
A: 0.228

Q: How did the relative viability turn out when LXF-289 was run?
A: 0.251

Q: NCI-H2347 was tested. Which relative viability did it give?
A: 0.339

Q: With NCI-H650 as the cell line, how does the relative viability read?
A: 0.174

Q: For NCI-H1651, which relative viability is on record?
A: 0.202

Q: How did the relative viability turn out when EPLC-272H was run?
A: 0.489
